# Measured values: patent publication EP1154766B1, “USE OF R-ARYL PROPIONIC ACIDS FOR PRODUCING MEDICAMENTS TO TREAT DISEASES IN HUMANS AND ANIMALS, WHEREBY SAID DISEASES CAN BE […] INFLUENCED BY INHIBITING THE ACTIVATION OF NF-KAPPA B” (PAZ Arzneimittel- Entwicklungsgesellschaft mbH, priority 1999, dated 2000)
# Legend:
# NF-κB = test: Inhibition of NF-κB activation, method not stated; conditions: arylpropionic acid derivatives without notable CoA thioester formation in humans
# [1] = system: NF-κB (p50/p65 Komplex von NF-κB); test: Electro mobility-shift assay (gel retention analysis) of LPS-induced NF-κB activation in RAW cells; assay type: cell-based
# Source text: Die erfindungsgemäßen Arzneimittel auf der Basis von R-Arylpropionsäuren und deren Derivaten gemäß Anspruch 1 als Hemmer der NF-κB-Aktivierung zur Therapie von Erkrankungen, welche durch die Modifizierung der NF-κB-Aktiierung beeinflußt werden, beruht auf folgenden experimentellen Untersuchungen: Abb. 2: Konzentrationsabhängiger Einfluß von R- und S-Flurbiprofen auf die Aktivierung des Transkriptionsfaktors NF-κB in RAW-Zellen. Die Gelretentionsanalyse (Electro Mobility-Shift Assay; DIG Gel Shift Kit, Boehringer Mannheim) zeigt, daß LPS (1 µg/ml) zu einer Aktivierung von NF-κB (p50/p65 Komplex von NF-κB) führt (Spur Nr. 2 und 10). […] Eine densitometrische Auswertung ergab, daß S-Flurbiprofen hinsichtlich dieser Eigenschaften ca. 100 mal weniger potent war (Spur Nr. 11, 12, 13,14, gegen Spur Nr. 10 als Kontrolle). Spur Nr. 1 und 8 zeigen jeweils unstimulierte Kontrollzellen.
# [2] = system: Zymosan-induzierte Rattenpfotenödem; test: Zymosan-induced rat paw oedema (plethysmograph); assay type: in vivo, Ratte; conditions: for Pfotenvolumen: rat, intraplantar zymosan, R-Flurbiprofen 1 to 27 mg/kg intraperitoneal, Abb. 3a-c
# Source text: Da der nukleäre Transkriptionsfaktor NF-κB u.a. für die Bildung, einer Reihe von Enzymen mit proinflammatorischer und ödembildender Eigenschaften verantwortlich ist, wurde der Einfluß von R-Flurbiprofen auf das Zymosan-induzierte Rattenpfotenödem bestimmt (Methode beschrieben bei: Meller ST und Gebhart GF: Intraplantar zymosan as a reliable, quantifiable model of thermal and mechanical hyperalgesia in the rat; European Journal of Pain, 1, 43-52 (1997). Abbildung 3 a - c faßt die Ergebnisse zusammen. Abb. 3a - c: Zeitabhängige Zunahme des Rattenpfotenvolumens (gemessen mit einem Plethysmographen) nach intraplantarer Applikation von Zymosan. Nach Applikation von Zymosan [Meller and Gebhart (s.o.)] in eine Hinterpfote der Ratte kommt es als Zeichen einer Entzündung zur Zunahme des Pfotenvolumens (Placebo-Gruppe, Applikation von Vehicle = Phosphatpuffer (PP)). […] Dieser Effekt war besonders ausgeprägt zwischen der 2. und 6. Stunde nach Zymosan-Applikation. Dexamethason (0,5 mg/kg Körpergewicht), ein bekannter Hemmer der NF-κB Aktivierung, wurde als Positivkontrolle eingesetzt. […] S-Flurbiprofen ist ein bekannter Hemmer der Cyclooxygenasen. Abb. 4: Zusammenfassung der Effekte von 9 mg/kg R-Flurbiprofen, 9 mg/kg S-Flurbiprofen und 0,5 mg/kg Dexamethason gegen Placebo (V) über 24 Stunden.
# [3] = system: akutem Postepisiotomie-Schmerz; test: Placebo-controlled double-blind study in acute post-episiotomy pain; assay type: in vivo, Frauen; conditions: single oral dose 25 mg or 100 mg, pain scale 0-3 over 360 min, Abb. 1
# Method: Abb. 1: Placebo-kontrollierte Doppelblind-Studie an 180 Frauen mit akutem Postepisiotomie-Schmerz (Mittelwertkurven)
# Die hospitalisierten Patienten wurden in drei Medikationsgruppen mit je 50 Patienten und einer Placebogruppe (30 Patienten) randomisiert. Jede Patientin erhielt innerhalb 48 Stunden nach der ansonsten normal verlaufenden Entbindung eine Einzeldosis der zu untersuchenden Studienmedikation (25 mg R(-)Flurbiprofen oder 100 mg R(-)Flurbiprofen oder 1000 mg Paracetamol) oder ein Placebo oral verabreicht. Kurz vor der oralen Gabe der Testpräparate bzw. des Placebos und zu genau festgelegten Untersuchungszeitpunkten (15, 30, 45, 60, 120, 180, 240, 300 und 360 Minuten) wurden die Patienten bezüglich ihres Schmerzempfindens befragt. Die Wirksamkeit der einzelnen Präparate wurde anhand einer Schmerzempfindungs-Skala (0 = keine, 1 = mild, 2 = moderat, 3 = stark) beurteilt. Die zeitlichen Verläufe sind in den in Abbildung 1 wiedergegebenen Mittelwertkurven der einzelnen Patientengruppen zusammengefaßt.
# [4] = system: gastrointestinale Verträglichkeit; conditions: studies in humans, literature; cited from earlier work
# [5] = system: postoperative dental pain; conditions: clinical study in patients, literature; cited from earlier work
smiles,measurement,setting,value
CC(C(=O)O)c1ccc(-c2ccccc2)c(F)c1 (stereo not shown) [Flurbiprofen],Hemmung der Aktivierung von NF-κB,NF-κB,ausgeprägte Hemmung der Aktivierung von NF-κB
CC(C(=O)O)c1cccc(C(=O)c2ccccc2)c1 (stereo not shown) [Ketoprofen],Hemmung der Aktivierung von NF-κB,NF-κB,ausgeprägte Hemmung der Aktivierung von NF-κB
COc1ccc2cc([C@H](C)C(=O)O)ccc2c1 [Naproxen],Hemmung der Aktivierung von NF-κB,NF-κB,ausgeprägte Hemmung der Aktivierung von NF-κB
C[C@@H](C(=O)O)c1ccc(-c2ccccc2)c(F)c1 [R-Flurbiprofen],Hemmung der LPS induzierten Aktivierung von NF-κB,"[1]; RAW-Zellen, LPS 1 µg/ml, micromolar concentrations, Abb. 2",waren in der Lage diese LPS induzierte Aktivierung von NF-κB zu hemmen
same,"Hemmung der NF-κB Aktivierung, mal potenter als die entsprechenden S-Enantiomere",[1]; relative to the corresponding S-enantiomer,ca. 100 mal
same,Effekte auf das Pfotenvolumen über 24 Stunden gegen Placebo,"[2]; 9 mg/kg, compared with 0,5 mg/kg Dexamethason, Abb. 4","vergleichbar mit denen nach 0,5 mg/kg Dexamethason"
same,"Zeitraum, in dem der Effekt auf das Pfotenvolumen besonders ausgeprägt war",[2]; hours after zymosan application,zwischen der 2. und 6. Stunde
same,Pfotenvolumen,[2],überraschende Abnahme des Pfotenvolumens
same,schmerzlindernde Wirkung,[3],nachgewiesen
same,gastrointestinale Verträglichkeit,[4],gute gastrointestinale Verträglichkeit
C[C@@H](C(=O)O)c1cccc(C(=O)c2ccccc2)c1 [R-Ketoprofen],schmerzlindernde Wirkung,[5],nachgewiesen
"C[C@H](C(=O)O)c1ccc(-c2ccccc2)c(F)c1 [S-Flurbiprofen, reference compound]","Potenz der Hemmung der NF-κB Aktivierung, mal weniger potent than R-Flurbiprofen","[1]; densitometric evaluation of the gel shift, RAW-Zellen, LPS 1 µg/ml",ca. 100 mal
same,Pfotenvolumen,[2],Reduktion des Pfotenvolumens
